According to the NIST ThermoML archive (doi:10.1021/acs.jced.6b00855):
± gives the expanded uncertainty stated by the source. Values belong to the compound of their own block, whether it stands above or below them.

Assay: refractive index (Na D-line) (dimensionless); wn = mass fraction of the nth substance listed
Conditions: 288.15 K, 100 kPa, Liquid, Standard Abbe refractometry

- refractive index (w1 = 0.5794): 1.4892 ± 0.0004
SMILES: [Br-].[Br-].[Ca+2] [calcium bromide] + O

- refractive index (w1 = 0.4075): 1.4428 ± 0.0004
SMILES: [Ca+2].[Cl-].[Cl-] [calcium chloride] + O

- refractive index (w1 = 0.5929): 1.4744 ± 0.0004
SMILES: [Br-].[Li+] [lithium bromide] + O

- refractive index (w1 = 0.4395): 1.4343 ± 0.0004
SMILES: [Cl-].[Li+] [lithium chloride] + O
